Where a name gives a salt, the structure may show the parent alone. Read-outs that look alike come from different tables or passages of the source.
Experiments:
[1] = system: Ras farnesylation in H-ras Me 12/+ cells; assay: Gel shift assay: inhibition of Ras farnesylation in H-ras Me 12/+ cells; assay type: cell-based; details: 18-hour incubation, read-out: Inhibition of Ras Farnesylation (Minimum Effective Dose)
Protocol: (§1) Twenty-four hours after planting 2×10^6 ras-transformed cells per treatment condition, the farnesylation inhibitor is added at varying concentrations. Following an 18-hour incubation period, cells are lysed in phosphate-buffered saline containing 1% Triton X-100, 0.5% sodium deoxycholate, and 0.1% SDS, pH 7.4 in the presence of several protease inhibitors (PMSF, antipain, leupeptin, pepstatin A, and aprotinin all at 1 μg/mL). Ras protein is immunoprecipitated from the supernatants by the addition of 3 μg v-H-ras Ab-2 (Y13-259 antibody from Oncogene Science). After overnight immunoprecipitation, 30 μL of a 50% protein G-Sepharose slurry (Pharmacia) is added followed by 45-minute incubation. Pellets are resuspended in 2× tris-glycine loading buffer (Novex) containing 5% B-mercaptoethanol and then denatured by 5 minutes boiling prior to electrophoresis on 14% Tris-glycine SDS gels. Using Western transfer techniques, proteins are transferred to nitrocellulose membranes followed by blocking in blocking buffer. Upon overnight incubation with primary antibody (pan-ras Ab-2 from Oncogene Science), an antimouse HRP conjugate secondary antibody (Amersham) is employed for detection of the ras protein. Blots are developed using ECL techniques (Amersham).
(§2) The data in Table 1 show farnesyl protein transferase inhibitory activity, and activity in the gel shift assay against ras protein of selected compounds of Formula I.

[2] = target: T1, rat brain farnesyl protein transferase (Rattus norvegicus, UniProt Q02293+Q04631); assay: Protein:farnesyltransferase (PFT/FPT) inhibitory activity assay; assay type: biochemical
T1 construct: 40-fold purified rat brain farnesyl protein transferase; from tissue; host or cells: rat brain

[3] = system: Ras farnesylation in H-ras-NIH3T3 cells; assay: Gel shift assay: inhibition of Ras farnesylation in H-ras-NIH3T3 cells; assay type: cell-based; details: 18-hour incubation, read-out: Inhibition of Ras Farnesylation (Minimum Effective Dose)
Protocol: as §1, §2

[4] = Hepes (without 5 mM phosphate), read-out: Farnesyl Protein Transferase Inhibition, Hepes, IC50
[5] = Hepes/5 mM PO4^-3, pH 7.4, read-out: Farnesyl Protein Transferase Inhibition, Hepes/5 mM PO4^-3, IC50

Row | SMILES | minimal effective concentration [1] | IC50 [2, 4] | IC50 [2, 5] | minimal effective concentration [3]
1 | CNC(=O)[C@H](Cc1c[nH]cn1)NC(=O)C(Cc1cccc2ccccc12)Cc1cccc2ccccc12 [Example 33, (S)-N-[2-(1H-Imidazol-4-yl)-1-methylcarbamoyl-ethyl]-3-naphthalen-1-yl-2-naphthalen-1-ylmethyl-propionamide] | 1 µM | 610 nM | 440 nM | 1 µM
2 | N#CCCOC(=O)[C@H](Cc1c[nH]cn1)NC(=O)C(Cc1cccc2ccccc12)Cc1cccc2ccccc12 [Example 17, (S)-3-(1H-Imidazol-4-yl)-2-(3-naphthalen-1-yl-2-naphthalen-1-ylmethyl-propionylamino)-propionic acid, 2-cyanoethyl ester] |  | 80 nM | 70 nM | 10 µM
3 | C=CCOC(=O)[C@H](Cc1c[nH]cn1)NC(=O)C(Cc1cccc2ccccc12)Cc1cccc2ccccc12 [Example 15, (S)-3-(1H-Imidazol-4-yl)-2-(3-naphthalen-1-yl-2-naphthalen-1-ylmethyl-propionylamino)-propionic acid, allyl ester] |  | 400 nM | 200 nM | 25 µM
4 | O=C(N[C@@H](Cc1c[nH]cn1)C(=O)NCCOCc1ccccc1)C(Cc1cccc2ccccc12)Cc1cccc2ccccc12 [Example 23, (S)-N-[1-(2-Benzyloxy-ethylcarbamoyl)-2-(1H-imidazol-4-yl)-ethyl]-3-naphthalen-1-yl-2-naphthalen-1-ylmethyl-propionamide] | 5 µM | 740 nM | 550 nM | 
5 | O=C(N[C@H](CO)Cc1c[nH]cn1)C(Cc1cccc2ccccc12)Cc1cccc2ccccc12 [Example 52, (S)-N-[1-Hydroxymethyl-2-(1H-imidazol-4-yl)-ethyl]-3-naphthalen-1-yl-2-naphthalen-1-ylmethyl-propionamide] |  | 3000 nM | 3400 nM | 25 µM
6 | O=C(N[C@@H](Cc1c[nH]cn1)C(=O)OCCc1ccccc1)C(Cc1cccc2ccccc12)Cc1cccc2ccccc12 [Example 53, (S)-3-(1H-Imidazol-4-yl)-2-(3-naphthalen-1-yl-2-naphthalen-1-ylmethyl-propionylamino)-propionic acid, phenethyl ester] |  | 70 nM | 60 nM | 25 µM
7 | N#CCCNC(=O)[C@H](Cc1c[nH]cn1)NC(=O)C(Cc1cccc2ccccc12)Cc1cccc2ccccc12 [Example 41, (S)-N-[1-(2-Cyano-ethylcarbamoyl)-2-(1H-imidazol-4-yl)-ethyl]-3-naphthalen-1-yl-2-naphthalen-1-ylmethyl-propionamide] |  | 970 nM | 710 nM | 5 µM
8 | COC(=O)[C@H](Cc1c[nH]cn1)NC(=O)C(Cc1ccccc1)Cc1cccc2ccccc12 (stereo partly drawn) [Example 65, (S)-2-(2-Benzyl-3-naphthalen-1-yl-propionylamino)-3-(1H-imidazol-4-yl)-propionic acid, methyl ester] |  | 1600 nM | 2900 nM | 25 µM
9 | COC(=O)[C@H](Cc1c[nH]cn1)N(C)C(=O)C(Cc1cccc2ccccc12)Cc1cccc2ccccc12 [Example 51, (S)-3-(1H-Imidazol-4-yl-2-[methyl-(3-naphthalen-1-yl-2-naphthalen-1-ylmethyl-propionyl)-amino]-propionic acid, methyl ester, trifluoroacetate] |  | 2000 nM | 2200 nM | 5 µM
10 | COC(=O)[C@H](Cc1c[nH]cn1)NC(=O)C(CC1CCCC2CCCCC21)CC1CCCC2CCCCC21 (stereo partly drawn) [Example 36, (S)-2-[3-(Decahydro-naphthalen-1-yl)-2-(decahydro-naphthalen-1-ylmethyl)-propionylamino]-3-(1H-imidazol-4-yl)-propionic acid, methyl ester] | 25 µM | 310 nM | 370 nM | 
11 | CCCOC(=O)[C@H](Cc1c[nH]cn1)NC(=O)C(Cc1cccc2ccccc12)Cc1cccc2ccccc12 [Example 7, (S)-3-(1H-Imidazol-4-yl)-2-(3-naphthalen-1-yl-2-naphthalen-1-ylmethyl-propionylamino)-propionic acid, propyl ester] | 5 µM | 110 nM | 100 nM | 
12 | CC(C)OC(=O)[C@H](Cc1c[nH]cn1)NC(=O)C(Cc1cccc2ccccc12)Cc1cccc2ccccc12 [Example 8, (S)-3-(1H-Imidazol-4-yl)-2-(3-naphthalen-1-yl-2-naphthalen-1-ylmethyl-propionylamino)-propionic acid, isopropyl ester] | 5 µM | 180 nM | 160 nM | 5 µM
13 | O=C(N[C@@H](Cc1c[nH]cn1)C(=O)NCCn1ccnc1)C(Cc1cccc2ccccc12)Cc1cccc2ccccc12 [Example 25, (S)-N-[2-(1H-Imidazol-4-yl)-1-(2-imidazol-1-yl-ethylcarbamoyl)-ethyl]-3-naphthalen-1-yl-2-naphthalen-1-ylmethyl-propionamide] |  | 1900 nM | 1500 nM | 
14 | O=C(N[C@@H](Cc1c[nH]cn1)C(=O)NCCN1CCOCC1)C(Cc1cccc2ccccc12)Cc1cccc2ccccc12 [Example 31, (S)-N-[2-(1H-Imidazol-4-yl)-1-(2-morpholin-4-yl-ethylcarbamoyl)-ethyl]-3-naphthalen-1-yl-2-naphthalen-1-ylmethyl-propionamide] |  | 26000 nM | 15000 nM | 
15 | CCN(CC)CCNC(=O)[C@H](Cc1c[nH]cn1)NC(=O)C(Cc1cccc2ccccc12)Cc1cccc2ccccc12 [Example 32] |  | 19000 nM | 14000 nM | 
16 | CCOC(=O)[C@H](Cc1c[nH]cn1)NC(=O)C(Cc1cccc2ccccc12)Cc1cccc2ccccc12 [Example 5, (S)-3-(1H-Imidazol-4-yl)-2-(3-naphthalen-1-yl-2-naphthalen-1-ylmethyl-propionylamino)-propionic acid, ethyl ester] | 2.5 µM | 130 nM | 130 nM | 
17 | COC(=O)[C@H](Cc1c[nH]cn1)NC(=O)C(Cc1cccc2c1CCCC2)Cc1cccc2c1CCCC2 [Example 37, (S)-3-(1H-Imidazol-4-yl)-2-[3-(5,6,7,8-tetrahydro-naphthalen-1-yl)-2-(5,6,7,8-tetrahydro-naphthalen-1-ylmethyl)-propionylamino]-propionic acid, methyl ester] | 10 µM | 420 nM | 180 nM | 
18 | CCNC(=O)[C@H](Cc1c[nH]cn1)NC(=O)C(Cc1cccc2ccccc12)Cc1cccc2ccccc12 [Example 34, (S)-N-[1-Ethylcarbamoyl-2-(1H-imidazol-4-yl)-ethyl]-3-naphthalen-1-yl-2-naphthalen-1-ylmethyl-propionamide] |  | 2900 nM | 2000 nM | 
19 | N#CCCOC(=O)[C@H](Cc1c[nH]cn1)NC(=O)C(Cc1cccc2c1CCCC2)Cc1cccc2c1CCCC2 [Example 49, (S)-3-(1H-Imidazol-4-yl)-2-[3-(5,6,7,8-tetrahydro-naphthalen-1-yl)-2-(5,6,7,8-tetrahydro-naphthalen-1-ylmethyl)-propionylamino]-propionic acid, 2-cyano-ethyl ester] |  | 290 nM | 370 nM | 
20 | O=C(N[C@@H](Cc1c[nH]cn1)C(=O)OCC1CC1)C(Cc1cccc2ccccc12)Cc1cccc2ccccc12 [Example 12, (S)-3-(1H-Imidazol-4-yl)-2-(3-naphthalen-1-yl-2-naphthalen-1-ylmethyl-propionylamino)-propionic acid, cyclopropylmethyl ester] |  | 400 nM | 250 nM | 
21 | COC(=O)[C@H](Cc1c[nH]cn1)NC(=O)C(Cc1cccc2ccccc12)Cc1cccc2ccccc12 [Example 1, (S)-3-(1H-Imidazol-4-yl)-2-(3-naphthalen-1-yl-2-naphthalen-1-ylmethyl-propionylamino)-propionic acid, methyl ester] | 2.5 µM | 260 nM | 300 nM | 5 µM
22 | O=C(N[C@@H](Cc1c[nH]cn1)C(=O)NCCc1c[nH]cn1)C(Cc1cccc2ccccc12)Cc1cccc2ccccc12 [Example 27, (S)-N-{2-(1H-Imidazol-4-yl)-1-[2-(1H-imidazol-4-yl)-ethylcarbamoyl]-ethyl}-3-naphthalen-1-yl-2-naphthalen-1-ylmethyl-propionamide] | 10 µM | 4800 nM | 3900 nM | 
23 | CC(=O)NCCSC(=O)[C@H](Cc1c[nH]cn1)NC(=O)C(Cc1cccc2ccccc12)Cc1cccc2ccccc12 [Example 40, (S)-3-(1H-Imidazol-4-yl)-2-(3-naphthalen-1-yl-2-naphthalen-1-ylmethyl-propionylamino)-thiopropionic acid, S-(2-acetylamino-ethyl)ester] |  | 2600 nM | 3200 nM | 

— US6008372A, “Substituted dinaphthylmethyl and diheteroarylmethylacetyl histidine inhibitors of protein farnesyltransferase” (Warner-Lambert Company, priority 1998, dated 1999)
